Measured values as given in US20140249135A1, “PIM KINASE INHIBITORS AND METHODS OF THEIR USE” (NOVARTIS AG, priority 2007, published 2014).
Where two headings read alike, the source gives them in different places.

Columns and labels:
HEL 92.1.7 cells = assay: Cell proliferation assay (CellTiter-Glo), HEL 92.1.7; assay type: cell-based; conditions: Homo sapiens, read-out: EC50 (μM) HEL 92.1.7
Protocol: HEL 92.1.7 cells (ATTC No. TIB-180, an erythroleukemia line derived from malignant peripheral blood), MV4-11 cells (ATCC No. CRL-9591, a human acute monocytic leukemia line) and PC3 cells (ATCC No. CRL-1435, a human prostatic adenocarcinoma line) were cultured in RPMI1640 supplemented with 10% FBS, sodium pyruvate and antibiotics. Cells were plated in the same medium at a density of 1000 cells per well into 96 well tissue culture plates, with outside wells vacant, on the day of assay.
Test compounds supplied in DMSO were diluted into DMSO at 500 times the desired final concentrations before dilution into culture media to 2 times final concentrations. Equal volumes of 2× compounds were added to the cells in 96 well plates and incubated at 37° C. for 3 days.
After 3 days plates were equilibrated to room temperature and equal volume of CellTiter-Glow Reagent (Promega) was added to the culture wells. The plates were agitated briefly and luminescent signal was measured with luminometer. The percent inhibition of the signal seen in cells treated with DMSO alone vs. cells treated with control compound was calculated and used to determine EC50 values (i.e., the concentration of a test compound that is required to obtain 50% of the maximum effect in the cells) for tested compounds, as shown in Example 763.

Pim2 kinase = Pim2 kinase (Homo sapiens, UniProt Q9P1W9); assay: Pim2 ATP depletion assay; assay type: biochemical; conditions: read-out: IC50 (μM) PIM2;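 note: Luciferase-based luminescent readout of ATP remaining after PIM2 phosphorylates a BAD peptide, final 5 nM enzyme, 4 µM ATP, 10 µM peptide, 2.5% DMSO, run to roughly half ATP consumption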
Pim2 kinase, sequence (Q9P1W9 whole entry): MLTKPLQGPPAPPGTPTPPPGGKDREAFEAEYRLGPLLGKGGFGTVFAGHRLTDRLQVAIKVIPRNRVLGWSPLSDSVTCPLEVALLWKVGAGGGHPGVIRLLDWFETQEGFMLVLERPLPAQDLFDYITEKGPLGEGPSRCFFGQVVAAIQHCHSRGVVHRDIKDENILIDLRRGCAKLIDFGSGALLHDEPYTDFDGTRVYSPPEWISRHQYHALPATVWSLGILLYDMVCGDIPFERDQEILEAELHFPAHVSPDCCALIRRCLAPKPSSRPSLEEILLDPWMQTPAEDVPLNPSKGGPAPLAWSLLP

Pim3 kinase = Pim3 kinase (Homo sapiens, UniProt Q86V86); assay: Pim3 ATP depletion assay; assay type: biochemical; conditions: read-out: IC50 (μM) PIM3
Pim1 kinase = Pim1 kinase (Homo sapiens, UniProt P11309); assay: Pim1 ATP depletion assay; assay type: biochemical;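 note: Luciferase-luciferin luminescence readout of residual ATP after PIM1 transfers phosphate to a peptide substrate, 40 µM ATP added, reaction run to roughly half ATP consumption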
Pim1 kinase, sequence (P11309 whole entry): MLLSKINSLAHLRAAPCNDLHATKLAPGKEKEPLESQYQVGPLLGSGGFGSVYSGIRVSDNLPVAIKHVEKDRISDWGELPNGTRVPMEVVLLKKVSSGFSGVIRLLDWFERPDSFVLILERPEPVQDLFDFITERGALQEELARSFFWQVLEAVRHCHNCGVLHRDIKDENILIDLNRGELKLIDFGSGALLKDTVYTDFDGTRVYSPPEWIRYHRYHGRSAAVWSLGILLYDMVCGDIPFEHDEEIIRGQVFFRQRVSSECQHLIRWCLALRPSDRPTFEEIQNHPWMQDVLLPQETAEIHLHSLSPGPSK

[1] = target: T1, human full length PKCE enzyme (Homo sapiens, UniProt Q02156); assay: In vitro PKCE assay; assay type: biochemical; conditions: 10 nM enzyme, 40 uM peptide substrate, 20 uM ATP, KinaseGlo Plus readout; read-out: PKCε IC50
T1 construct: human full length PKCE enzyme purchased from InVitrogen; purchased InVitrogen
T1 sequence (Q02156 1-737): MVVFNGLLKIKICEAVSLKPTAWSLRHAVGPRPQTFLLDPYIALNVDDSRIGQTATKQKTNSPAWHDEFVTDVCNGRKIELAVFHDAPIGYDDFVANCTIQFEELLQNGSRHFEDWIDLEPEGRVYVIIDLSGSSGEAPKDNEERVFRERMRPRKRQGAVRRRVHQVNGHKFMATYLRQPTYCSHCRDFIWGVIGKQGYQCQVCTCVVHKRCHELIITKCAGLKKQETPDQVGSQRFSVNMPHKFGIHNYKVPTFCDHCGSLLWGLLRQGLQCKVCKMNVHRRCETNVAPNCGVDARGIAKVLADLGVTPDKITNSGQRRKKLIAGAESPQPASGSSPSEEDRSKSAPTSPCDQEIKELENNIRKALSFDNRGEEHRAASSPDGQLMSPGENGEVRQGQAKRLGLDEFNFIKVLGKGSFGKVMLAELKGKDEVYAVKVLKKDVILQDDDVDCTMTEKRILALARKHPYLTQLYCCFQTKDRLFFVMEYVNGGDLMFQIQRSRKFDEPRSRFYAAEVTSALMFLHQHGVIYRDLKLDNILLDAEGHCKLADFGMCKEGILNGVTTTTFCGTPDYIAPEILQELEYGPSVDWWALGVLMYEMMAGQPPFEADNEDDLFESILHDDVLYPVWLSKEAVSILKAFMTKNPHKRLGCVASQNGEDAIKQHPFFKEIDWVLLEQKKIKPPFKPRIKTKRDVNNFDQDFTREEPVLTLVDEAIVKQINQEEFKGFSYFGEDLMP

KDR kinase = KDR kinase (Homo sapiens, UniProt P35968); assay: KDR AlphaScreen assay; conditions: KDR IC50 (μM)
KDR kinase, sequence (P35968 20-1356): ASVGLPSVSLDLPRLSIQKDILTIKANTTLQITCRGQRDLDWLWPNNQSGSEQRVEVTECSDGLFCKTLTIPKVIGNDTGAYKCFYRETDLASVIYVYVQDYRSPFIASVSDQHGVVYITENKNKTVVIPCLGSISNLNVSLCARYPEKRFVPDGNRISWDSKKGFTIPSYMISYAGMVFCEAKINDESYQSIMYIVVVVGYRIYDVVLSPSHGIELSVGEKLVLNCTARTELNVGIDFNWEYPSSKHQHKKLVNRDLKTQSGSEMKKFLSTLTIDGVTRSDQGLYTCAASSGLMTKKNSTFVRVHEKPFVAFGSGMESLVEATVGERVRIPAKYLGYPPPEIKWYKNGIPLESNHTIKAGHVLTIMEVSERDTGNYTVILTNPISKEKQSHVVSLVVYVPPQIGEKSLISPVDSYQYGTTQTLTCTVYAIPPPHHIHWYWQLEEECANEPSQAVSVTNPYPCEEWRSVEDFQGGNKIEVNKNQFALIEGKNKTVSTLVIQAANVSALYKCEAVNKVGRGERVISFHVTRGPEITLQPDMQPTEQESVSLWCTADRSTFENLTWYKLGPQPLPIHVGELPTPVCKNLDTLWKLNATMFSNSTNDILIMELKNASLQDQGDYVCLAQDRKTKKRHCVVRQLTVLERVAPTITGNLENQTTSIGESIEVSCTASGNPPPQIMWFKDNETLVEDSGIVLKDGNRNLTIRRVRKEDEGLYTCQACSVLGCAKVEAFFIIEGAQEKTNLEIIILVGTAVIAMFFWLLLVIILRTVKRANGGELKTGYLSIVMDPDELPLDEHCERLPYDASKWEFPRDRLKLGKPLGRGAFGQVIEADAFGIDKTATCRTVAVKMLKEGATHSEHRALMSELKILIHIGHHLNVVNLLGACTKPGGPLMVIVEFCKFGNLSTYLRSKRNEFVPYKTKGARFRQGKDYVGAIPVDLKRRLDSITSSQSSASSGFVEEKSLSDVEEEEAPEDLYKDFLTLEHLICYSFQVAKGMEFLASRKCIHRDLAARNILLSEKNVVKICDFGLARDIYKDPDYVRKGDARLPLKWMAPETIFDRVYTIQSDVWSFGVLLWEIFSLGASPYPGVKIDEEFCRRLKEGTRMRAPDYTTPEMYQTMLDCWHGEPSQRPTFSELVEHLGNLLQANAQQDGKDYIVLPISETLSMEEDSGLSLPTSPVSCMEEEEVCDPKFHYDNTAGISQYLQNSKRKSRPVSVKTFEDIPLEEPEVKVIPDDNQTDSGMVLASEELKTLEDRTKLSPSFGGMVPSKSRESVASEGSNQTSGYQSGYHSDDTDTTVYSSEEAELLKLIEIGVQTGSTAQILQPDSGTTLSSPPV

[2] = Pim1 ATP depletion assay, read-out: IC50 (μM) PIM1

| Structure (SMILES) | EC50 (HEL 92.1.7 cells) [µM] | IC50 (Pim2 kinase) [µM] | IC50 (Pim3 kinase) [µM] | IC50 (Pim1 kinase; [2]) [µM] | IC50 [1] [µM] | IC50 (Pim1 kinase) [µM] | IC50 (KDR kinase) [µM] |
| --- | --- | --- | --- | --- | --- | --- | --- |
| COC(=O)c1ccc(-c2ccc(N)c(C(=O)Nc3cnccc3N3CCC[C@H](N)C3)n2)c(F)c1 [Example 325, 4-[5-amino-6-((S)-3-amino-3,4,5,6-tetrahydro-2H-[1,4′]bi-pyridinyl-3′-ylcarbamoyl)-pyridin-2-yl]-3-fluoro-benzoic acid methyl ester] | 1 to 5 | < 1 | < 1 | < 1 | – | – | – |
| Cc1ccc(-c2ccc(N)c(C(=O)Nc3cnccc3N3CCC[C@H](N)C3)n2)c(F)c1 [Example 432, 3-amino-6-(2-fluoro-4-methyl-phenyl)-pyridine-2-carboxylic acid ((S)-3-amino-3,4,5,6-tetra-hydro-2H-[1,4′]bipyridinyl-3′-yl)-amide] | 1 to 5 | – | – | – | – | – | – |
| NCCC(=O)N1CCN(c2ccncc2NC(=O)c2nccnc2N)CC1 [Example 188, 3-amino-N-{4-[4-(3-aminopropanoyl)piperazin-1-yl]pyridin-3-yl}pyrazine-2-carboxamide] | – | 1 to 10 | < 1 | – | < 1 | < 1 | 1 to 10 |
| Nc1nccnc1C(=O)Nc1cnccc1Cl [Example 125, 3-amino-N-(4-chloropyridin-3-yl)pyrazine-2-carboxamide] | – | > 25 | 10 to 25 | 1 to 10 | 10 to 25 | – | 1 to 10 |
| NC(=O)c1cccc(-c2cnc(N)c(C(=O)Nc3cnccc3N3CCNCC3)n2)c1 [Example 361, 3-amino-6-(3-carbamoyl-phenyl)-pyrazine-2-carboxylic acid (4-piperazin-1-yl-pyridin-3-yl)-amide] | – | < 1 | < 1 | < 1 | < 1 | – | < 1 |
| Nc1nccnc1C(=O)Nc1cc(Cl)ccc1N1CCCC(N)C1 (stereo not drawn) [Example 215, 3-amino-N-[2-(3-aminopiperidin-1-yl)-5-chlorophenyl]pyrazine-2-carboxamide] | – | 1 to 10 | < 1 | < 1 | 1 to 10 | – | > 25 |
| Nc1nccnc1C(=O)Nc1cnccc1C1=CCCCC1 [Example 118, 3-amino-N-(4-cyclohex-1-en-1-ylpyridin-3-yl)pyrazine-2-carboxamide] | – | 1 to 10 | < 1 | < 1 | < 1 | – | < 1 |
| Nc1nccnc1C(=O)Nc1cc(C(F)(F)F)ccc1N1CCNCC1 [Example 224, 3-amino-N-[2-piperazin-1-yl-5-(trifluoromethyl)phenyl]pyrazine-2-carboxamide] | – | > 25 | 1 to 10 | < 1 | 1 to 10 | – | > 25 |
| Nc1nccnc1C(=O)Nc1cc(C(=O)c2ccccc2)ccc1N1CCC(N)CC1 [Example 233, 3-amino-pyrazine-2-carboxylic acid [2-(4-amino-piperidin-1-yl)-5-benzoyl-phenyl]-amide] | – | > 25 | 1 to 10 | 1 to 10 | 1 to 10 | – | 1 to 10 |
| Nc1ncc(-c2ccccc2F)nc1C(=O)Nc1cc(C(=O)c2ccccc2)ccc1N1CCC(N)CC1 [Example 439, 3-amino-6-(2-fluoro-phenyl)-pyrazine-2-carboxylic acid [2-(4-amino-piperidin-1-yl)-5-benzoyl-phenyl]-amide] | – | > 25 | 1 to 10 | 1 to 10 | 1 to 10 | – | 1 to 10 |
| Nc1ncc(-c2ccccc2)nc1C(=O)Nc1cc(C(=O)c2ccccc2)ccc1N1CCC(N)CC1 [Example 436, 3-amino-6-phenyl-pyrazine-2-carboxylic acid [2-(4-amino-piperidin-1-yl)-5-benzoyl-phenyl]-amide] | – | > 25 | 1 to 10 | 1 to 10 | 1 to 10 | – | 1 to 10 |
| Nc1nccnc1C(=O)Nc1cnccc1N1CCC2(CC1)OCCO2 [Example 127, 3-amino-N-[4-(1,4-dioxa-8-azaspiro[4.5]dec-8-yl)pyridin-3-yl]pyrazine-2-carboxamide] | – | > 25 | > 25 | 1 to 10 | 1 to 10 | – | > 25 |
| NCCC(=O)N1CCN(c2cnc(=O)[nH]c2NC(=O)c2nc(Cl)c(N)nc2N)CC1 [Example 238, 3,5-diamino-6-chloro-pyrazine-2-carboxylic acid {5-[4-(3-amino-propionyl)-piperazin-1-yl]-2-oxo-2,3-dihydro-pyrimidin-4-yl}-amide] | – | < 1 | < 1 | < 1 | > 25 | – | < 1 |
| Nc1nc(N)c(C(=O)Nc2cnccc2N2CCCCC2)nc1Cl [Example 121, 3,5-diamino-6-chloro-N-(4-piperidin-1-ylpyridin-3-yl)-pyrazine-2-carboxamide] | – | < 1 | < 1 | < 1 | > 25 | – | < 1 |
| Nc1ncc(-c2ccc(N)c(C(=O)Nc3cnccc3N3CCC[C@H](N)C3)n2)cn1 [Example 411, 3-amino-6-(2-amino-pyrimidin-5-yl)-pyridine-2-carboxylic acid ((S)-3-amino-3,4,5,6-tetrahydro-2H-[1,4′]bipyridinyl-3′-yl)-amide] | – | < 1 | < 1 | < 1 | 10 to 25 | – | > 25 |
| Cc1ccc(N2CCNCC2)c(NC(=O)c2nccnc2N)c1 [Example 216, 3-amino-N-(5-methyl-2-piperazin-1-ylphenyl)pyrazine-2-carboxamide] | – | > 25 | 1 to 10 | 1 to 10 | 1 to 10 | – | > 25 |
| Nc1ncc(Br)nc1C(=O)Nc1ccccc1N1CCNCC1 [Example 206, 3-amino-6-bromo-N-(2-piperazin-1-ylphenyl)pyrazine-2-carboxamide] | – | 1 to 10 | < 1 | < 1 | < 1 | – | 1 to 10 |
| Nc1nccnc1C(=O)Nc1cc(C(=O)C2CC2)ccc1N1CCC(N)CC1 [Example 244, 3-amino-pyrazine-2-carboxylic acid [2-(4-amino-piperidin-1-yl)-5-cyclopropanecarbonyl-phenyl]-amide] | – | 10 to 25 | 1 to 10 | 1 to 10 | 1 to 10 | – | 10 to 25 |
| CC(=O)c1ccc(N2CCNCC2)c(NC(=O)c2nccnc2N)c1 [Example 219, N-(5-acetyl-2-piperazin-1-yl-phenyl)-3-aminopyrazine-2-carboxamide] | – | 10 to 25 | < 1 | < 1 | 1 to 10 | – | > 25 |
| Nc1ncc(Br)nc1C(=O)Nc1ccccc1N1CCCC(N)C1 (stereo not drawn) [Example 204, 3-amino-N-[2-(3-aminopiperidin-1-yl)phenyl]-6-bromopyrazine-2-carboxamide] | – | < 1 | < 1 | < 1 | < 1 | – | 1 to 10 |
| Nc1ncc(-c2ccccc2F)nc1C(=O)Nc1ccccc1N1CCNCC1 [Example 383, 3-amino-6-(2-fluoro-phenyl)-pyrazine-2-carboxylic acid (2-piperazin-1-yl-phenyl)-amide] | – | 1 to 10 | < 1 | < 1 | < 1 | – | 1 to 10 |
| Cc1ccc(-c2ccc(N)c(C(=O)Nc3cnccc3N3CCC[C@H](N)C3)n2)c(F)c1 [Example 406, (S)-3-amino-N-(4-(3-aminopiperidin-1-yl)pyridin-3-yl)-6-(2-fluoro-4-methylphenyl)picolinamide] | – | < 1 | < 1 | < 1 | 1 to 10 | – | > 25 |
